This note sets out measurements from US9301526B2, “Compounds with nematicidal activity” (BAYER INTELLECTUAL PROPERTY GMBH, priority 2011, dated 2016).

For one series, the system named is Meloidogyne incognita. The series is described as follows: Meloidogyne incognita test (gall formation on salad seedlings in sand). Format: in vivo. To be noted: application rate 20 ppm; after 14 days; 100% = no galls, 0% = galls equal to untreated control. As to the method:
Meloidogyne Incognita—Test
Solvent: 125.0 parts by weight of acetone
To produce a suitable preparation of active compound, 1 part by weight of active compound is mixed with the stated amount of solvent, and the concentrate is diluted with water to the desired concentration. Vessels are filled with sand, a solution of the active ingredient, a suspension containing eggs and larvae of Meloidogyne incognita and salad seeds. The salad seeds germinate and the seedlings grow. Galls develop in the roots.
After 14 days the nematicidal activity is determined on the basis of the percentage of gall formation. 100% means that no galls were found; 0% means that the number of galls found on the roots of the treated plants was equal to that in untreated control plants.
For the compound `CC(NC(=O)c1ccccc1C(F)(F)F)C(CC1CC1)c1ncc(C(F)(F)F)cc1Cl` (mixture of isomers) [Ia-143], the “nematicidal activity on the basis of the percentage of gall formation” value was 100%.
Still for that read-out and setting: with `CC(Cc1ncc(C(F)(F)F)cc1Cl)NC(=O)c1ccccc1C(F)(F)F` (single isomer, unassigned) [Ia-122] the figure was 100%; with `CC(Cc1ncc(Cl)cc1Cl)NC(=O)c1ccccc1C(F)(F)F` (centres unmarked) [Ia-3], 100%.
Take `CC(Cc1ncc(C(F)(F)F)cc1Cl)NC(=O)c1ccccc1C(F)(F)F` (centres unmarked) [Ia-43]: the “nematicidal activity on the basis of the percentage of gall formation” value came to 100%.
Still for that read-out and setting: then `CC(CNC(=O)c1ccccc1C(F)(F)F)c1ccc(C(F)(F)F)cn1` (centres unmarked) [Ia-46], with 100%; and `CC(CNC(=O)c1ccccc1I)c1ccc(C(F)(F)F)cn1` (centres unmarked) [Ia-47], with 100%; and `CC(CNC(=O)c1ccccc1I)c1ccc(C(F)(F)F)c(Cl)n1` (centres unmarked) [Ia-50], with 100%.
For `Cc1c(F)cccc1C(=O)NCC(C)c1ncc(C(F)(F)F)cc1Cl` (centres unmarked) [Ia-70], the “nematicidal activity on the basis of the percentage of gall formation” value is on record as 100%.
In the case of `CC(CNC(=O)c1ccccc1C(F)(F)F)c1ncc(C(F)(F)F)cc1Cl` (centres unmarked) [Ia-92], the “nematicidal activity on the basis of the percentage of gall formation” value is given as 100%.
Still for that read-out and setting: then `CC(C)(CNC(=O)c1ccccc1C(F)(F)F)c1ncc(C(F)(F)F)cc1Cl` [Ia-93, N-{2-[3-chloro-5-(trifluoromethyl)pyridin-2-yl]-2-methylpropyl}-2-(trifluoromethyl)benzamide], with 100%; and `CCC(Cc1ncc(C(F)(F)F)cc1Cl)NC(=O)c1ccccc1C(F)(F)F` (centres unmarked) [Ia-110], with 100%; and `CC(CNC(=O)c1ccccc1C(F)(F)F)c1ncc(Cl)cc1Cl` (centres unmarked) [Ia-113], with 100%.
The same measure, in the same setting: then `CC(CNC(=O)c1ccccc1I)c1ncc(Cl)cc1Cl` (centres unmarked) [Ia-114], with 100%; and `CCC(CNC(=O)c1ccccc1C(F)(F)F)c1ccc(Cl)cn1` (centres unmarked) [Ia-131], with 100%.
Same read-out and setting: with `CC(Cc1ncc(C(F)(F)F)cc1Cl)NC(=O)c1ccccc1I` (centres unmarked) [Ia-140] the figure was 100%; with `CC(Cc1ncc(C(F)(F)F)cc1Cl)NC(=O)c1ccccc1Cl` (centres unmarked) [Ia-141], 100%.
Take `O=C(NCC(F)(F)c1ncc(Cl)cc1Cl)c1ccccc1I` [Ia-142]: the “nematicidal activity on the basis of the percentage of gall formation” value is 100%.
Take `O=C(NCC(F)(F)c1ncc(C(F)(F)F)cc1Cl)c1ccccc1C(F)(F)F` [Ia-148]: the “nematicidal activity on the basis of the percentage of gall formation” value is 100%.
In the case of `CC(Cc1ncc(C(F)(F)F)cc1Cl)NC(=O)c1ccccc1Br` (centres unmarked) [Ia-153], the “nematicidal activity on the basis of the percentage of gall formation” value amounted to 100%.
Still for that read-out and setting: then `CC(Cc1ncc(C(F)(F)F)cc1Cl)NC(=O)c1ccccc1C(F)F` (centres unmarked) [Ia-154], with 100%; and `CC(Cc1ncc(C(F)(F)F)cc1Cl)NC(=O)c1c(F)cccc1F` (centres unmarked) [Ia-170], with 90%.
On the same count and under the same terms, with `CC(Cc1ncc(C(F)(F)F)cc1Cl)NC(=O)c1ccccc1F` (centres unmarked) [Ia-172] the figure was 90%; with `CC(Cc1ncc(C(F)(F)F)cc1Cl)NC(=O)c1c(F)cccc1C(F)(F)F` (centres unmarked) [Ia-174], 90%.
Turning to `CC(CNC(=O)c1ccccc1I)c1ncc(C(F)(F)F)cc1Cl` (centres unmarked) [Ia-177], the “nematicidal activity on the basis of the percentage of gall formation” value stood at 100%.
As for `CC(Cc1ncc(C(F)(F)F)cc1Cl)NC(=O)c1ccccc1[N+](=O)[O-]` (centres unmarked) [Ia-196], the “nematicidal activity on the basis of the percentage of gall formation” value is recorded as 90%.
On the same count and under the same terms, with `CN(C)C(CNC(=O)c1ccccc1Cl)c1ncc(C(F)(F)F)cc1Cl` (centres unmarked) [Ia-211] the figure was 90%; with `CN(C)C(CNC(=O)c1ccccc1C(F)(F)F)c1ncc(C(F)(F)F)cc1Cl` (centres unmarked) [Ia-212], 90%; with `O=C(NCCc1cnc(C(F)(F)F)cc1Cl)c1ccccc1C(F)(F)F` [Ib-47], 90%.
Still for that read-out and setting: then `O=C(NCCc1cnc(C(F)(F)F)cc1Cl)c1ccccc1C(F)F` [Ib-50], with 70%.
Consider `O=C(NCCc1cnc(C(F)(F)F)cc1Cl)c1c(F)cccc1F` [Ib-51], for which the “nematicidal activity on the basis of the percentage of gall formation” value amounted to 70%.
On the same count and under the same terms, with `O=C(NCCc1cnc(C(F)(F)F)cc1Cl)c1ccccc1[N+](=O)[O-]` [Ib-58] the figure was 90%; with `O=C(NCCc1c(F)c(F)nc(F)c1F)c1ccccc1C(F)(F)F` [Ic-1], 100%; with `O=C(NCCc1c(F)c(F)nc(F)c1F)c1ccccc1I` [Ic-2], 100%.
Same read-out and setting: with `Cc1cc(CCNC(=O)c2ccccc2C(F)(F)F)c(Cl)cn1` [Ic-5] the figure was 90%.
On the same count and under the same terms, then `O=C(NCCc1cc(F)ncc1F)c1ccccc1C(F)(F)F` [Ic-7], with 100%.

For the next series, the system named is Cooperia curticei larvae. As to the kind of experiment: Cooperia curticei test (COOPCU), larval mortality. To be noted: application rate 100 ppm; after 5 days; 100% = all larvae killed. The format is in vivo. As for the experimental part:
Cooperia Curticei-Test (COOPCU)
(§1) Solvent: dimethyl sulfoxide
(§2) To produce a suitable preparation of active compound, 10 mg of active compound are dissolved in 0.5 ml solvent, and the concentrate is diluted with “Ringer's solution” to the desired concentration.
Approximately 40 Cooperia curticei larvae are transferred into a test tube containing compound solution. After 5 days percentage of larval mortality are recorded. 100% efficacy means all larvae are killed; 0% efficacy means no larvae are killed.
As to `O=C(NCCc1cnc(C(F)(F)F)cc1Cl)c1ccccc1F` [Ib-48], the “activity (percentage of larval mortality)” value stood at 90%.
Same read-out and setting: then `O=C(NCCc1c(Cl)cncc1Cl)c1ccc(F)c(F)c1` [Ic-26], with 80%; and `CCc1ccc(C(=O)NCCc2ccnc(OC)c2)cc1` [Ic-58], with 80%.
Regarding `COc1cc(CCNC(=O)c2ccccc2OC)ccn1` [Ic-59], the “activity (percentage of larval mortality)” value worked out at 90%.
Same read-out and setting: then `COc1cc(CCNC(=O)c2ccc(C(F)(F)F)cc2)ccn1` [Ic-60], with 90%; and `COc1cc(CCNC(=O)c2cccc(Cl)c2)ccn1` [Ic-75], with 90%.

In a further series the test system is Haemonchus contortus larvae. As to the kind of experiment: Haemonchus contortus test (HAEMCO), larval mortality. To be noted: application rate 20 ppm; after 5 days; 100% = all larvae killed. Format: in vivo. As to the method: Haemonchus contortus—Test (HAEMCO)
as §1, §2
Approximately 40 Haemonchus contortus larvae are transferred into a test tube containing compound solution. After 5 days percentage of larval mortality are recorded. 100% efficacy means all larvae are killed, 0% efficacy means no larvae are killed.
For the compound `O=C(NCCc1cnc(C(F)(F)F)cc1Cl)c1ccccc1Br` [Ib-52], the “activity (percentage of larval mortality)” value was determined as 80%.

The series is the same for the next values; noted with them: application rate 100 ppm; after 5 days; 100% = all larvae killed.
As to `COC(=O)C(CNC(=O)c1ccccc1C(F)(F)F)(C(=O)OC)c1ncc(C(F)(F)F)cc1Cl` [Ia-1], the “activity (percentage of larval mortality)” value is 90%.
On the same count and under the same terms, with `COC(=O)C(CNC(=O)c1ccccc1C(F)(F)F)c1ncc(C(F)(F)F)cc1Cl` (centres unmarked) [Ia-5] the figure was 80%.
Same read-out and setting: with `CCOC(=O)C(CNC(=O)c1ccccc1C(F)(F)F)(C(=O)OC)c1ncc(C(F)(F)F)cc1Cl` (centres unmarked) [Ia-6] the figure was 80%; with `O=C(NCC1(c2ccc(Cl)cn2)CC1)c1ccccc1C(F)(F)F` [Ia-48], 80%; with `O=C(NCCc1cnc(C(F)(F)F)cc1Cl)c1ccccc1C(F)(F)F` [Ib-47], 100%.
For the compound `O=C(NCCc1cnc(C(F)(F)F)cc1Cl)c1ccccc1F` [Ib-48], the “activity (percentage of larval mortality)” value worked out at 90%.
The same measure, in the same setting: then `O=C(NCCc1cnc(C(F)(F)F)cc1Cl)c1ccccc1Cl` [Ib-49], with 100%.
Regarding `O=C(NCCc1cnc(C(F)(F)F)cc1Cl)c1ccccc1C(F)F` [Ib-50], the “activity (percentage of larval mortality)” value is reported as 100%.
Still for that read-out and setting: then `O=C(NCCc1cnc(C(F)(F)F)cc1Cl)c1c(F)cccc1F` [Ib-51], with 90%.
On to `O=C(NCCc1c(F)c(F)nc(F)c1F)c1ccccc1C(F)(F)F` [Ic-1], for which the “activity (percentage of larval mortality)” value is reported as 100%.
Same read-out and setting: then `O=C(NCCc1cc(F)ncc1F)c1ccccc1C(F)(F)F` [Ic-7], with 100%.
